Series [1] in a line: Pharmacokinetic study in male CD-1 mice. Format: in vivo. The note with it: for AUC0-inf: 5 mg/kg; for AUC0-inf / AUC(0-t) / Cmax / MRT inf / Tmax / half-life / tlast: single IV bolus 5 mg/kg of compound 17, male CD-1 mice, plasma, 18 and 19 measured as metabolites; for AUC(0-t) / Cmax / MRT inf / Tmax / half-life: mouse. Here is the method: Male CD-1 mice weighing between […] were dosed via orbital sinus injection and blood was collected via submandibular vein. IV dosing solutions were prepared in DMSO:PEG400:Saline (5:35:60, v/v/v) at 1 mg/mL concentration of the prodrug. Blood samples (50 μL each time point) were obtained via Culex at predetermined time points (0, 5, 15, 30, 60, 120, 240, 360, 480 and 1440 min) after dosing. Plasma was obtained by centrifugation within 30 minutes after collection and aliquots of dosing solutions were taken and analyzed at the same time with plasma samples using a validated LC-MS/MS method developed on a Shimadzu HPLC system interfaced to a Sciex QTRAP 5500 mass spectrometer. Eluents were gradient mixtures of water and acetonitrile with 0.10% formic acid. HPLC column was ACE 5 C8, 50×2.1 mm, […]. PK parameters of the analytes were obtained using Phoenix®, WinNonlin® software (version 8.1).
The study was performed in male CD-1 mice to assess pharmacokinetics (PK) of prodrug 17 and its metabolites 18 and 19.

Series [2] concerns HIV-1RF. Kind of series: Anti-HIV cytoprotection evaluation in CEM-SS cells (CPE inhibition, XTT). The series is classed as cell-based. The settings on record: Human immunodeficiency virus 1, 144 h, 6 days. Here is the method:
(§1) (a) Anti-HIV Cytoprotection Evaluation: Inhibition of virus-induced cytopathic effects (CPE) and cell viability following HIV replication in CEM-SS cells were measured by the use of XTT tetrazolium dye. CEM-SS cells (2.5×10^3 cells per well) were seeded in 96-well U-bottomed tissue culture plates in RPMI medium supplemented with 10% FBS, 2 mM L-glutamine, 100 U/ml penicillin and 100 μg/ml streptomycin. Serially diluted compounds (6 concentrations) and HIV-1RF diluted to a pre-determined titer to yield 85 to 95% cell killing at 6 days post-infection were be added to the plate. AZT was evaluated in parallel as a positive control. Following incubation at 37° C., 5% CO2 for six days, cell viability was measured by XTT staining. The optical density of the cell culture plate will be determined spectrophotometrically at 450 and 650 nm using Softmax Pro 4.6 software. Percent CPE reduction of the virus-infected wells and the percent cell viability of uninfected drug control wells was calculated to define the EC50, TC50 and therapeutic index (TI50) using Microsoft Excel Xlfit4.
as §1, with “Inhibition” for “(a) Anti-HIV Cytoprotection Evaluation: Inhibition”, “by” for “by the use of”, “wells were” for “wells was”

The nature of series [3]: Cytotoxicity in PBMCs (XTT). Format: cell-based. The settings on record: human, PHA-P stimulated PBMCs pooled from three donors; PBMC, HIV-192RW009, 7 days, XTT; read-out: TC50. As to the method:
(§2) (b) Anti-HIV-1 Cytoprotection Assay in PBMCs: PHA-P stimulated PBMCs from three donors were pooled together and re-suspended in fresh tissue culture medium at 1×10^6 cells/ml and plated in the interior wells of a 96 well round bottom microplate at 50 μL/well. A 100 μL volume of 2× concentrations of compound-containing media were transferred to the round-bottom 96-well plate containing the cells in triplicate. Fifty microliters (50 μL) of HIV-1 at a pre-determined dilution was added. Each plate contained cell control wells and virus control wells in parallel with the experimental wells. After 7 days in culture, efficacy was evaluated by measuring the reverse transcriptase in the culture supernatants and the cells were stained with the tetrazolium dye XTT to evaluate cytotoxicity.
as §2, with “This Example illustrates anti-HIV cytoprotection provided by compounds” for “(b) Anti-HIV-1 Cytoprotection Assay”, “accordance with another aspect of the invention, namely in PBMCs.” for “PBMCs:”

Series [4] in a line: Cell viability of uninfected drug control wells, CEM-SS cells (XTT). Format: cell-based. The settings on record: human, read-out: TC50. As to the method:
as §1
as §1, with “Inhibition” for “(a) Anti-HIV Cytoprotection Evaluation: Inhibition”, “by” for “by the use of”, “wells were” for “wells was”

The subject of series [5] is HIV-192RW009. In words: Anti-HIV-1 cytoprotection assay in PBMCs (reverse transcriptase in supernatant). The series is classed as cell-based. The note with it: Human immunodeficiency virus 1, 168 h; PBMC, HIV-192RW009, 7 days. As to the method:
as §2

The test system of series [6] is simian immunodeficiency virus (SIV). The settings on record: SAMT-247 in combination with ΔV1DNA-ALVAC/gp120/alum vaccine; Rahman et al., Nature Microbiology 8; cited from earlier work.
The mark [7] stands for this setting: male, CD-1, mouse, in vivo, iv, read-out: AUC0-inf.

Like-named read-outs stand apart in the source and are kept apart here.

In the case of `Cc1cccc(CNC(=O)c2cn(CCNC(=O)c3ccccc3S)c3cc4c(cc3c2=O)OC(F)(F)O4)n1` [Compound 19], the AUC0-inf in series [1] (setting [7]) is 13.1 ng·h/mL. Further, in series [1] (in vivo), the AUC(0-t) is 12.8 ng·h/mL, the Cmax was 46.9 ng/mL, the MRT inf amounted to 0.33 h and the Tmax came out at 4.98 min. Further, the half-life in series [1] (in vivo) is 21 min. In addition, in series [1], the tlast amounted to 2.00 h and the AUC0-inf is 12.8 ng·h/mL.
For the compound `CCCC(=O)OCSc1ccccc1C(=O)NCCn1cc(C(=O)NCc2ccccn2)c(=O)c2cc3c(cc21)OCO3` [Compound 5, ((2-((2-(8-oxo-7-((pyridin-2-ylmethyl)carbamoyl)-[1,3]dioxolo[4,5-g]quinolin-5(8H)-yl)ethyl)carbamoyl)phenyl)thio)methyl butyrate], the EC50 turned out to be 540 nM in series [2] and 910 nM in series [5]. Moreover, the CC50 at 7 days in series [3] was over 100 µM. In series [4], the CC50 at 6 days was over 100 µM.
As for `CCCC(=O)OCSc1ccccc1C(=O)NCCn1ccc(=O)c2cc3c(cc21)OCO3` [Compound 2, ((2-((2-(8-oxo-[1,3]dioxolo[4,5-g]quinolin-5(8H)-yl)ethyl)carbamoyl)phenyl)thio)methyl butyrate], the values for the EC50 in series [2] and in series [5] were 1150 nM and 480 nM, respectively. For the same compound, in series [3], the CC50 at 7 days is over 100 µM. Besides, in series [4], the CC50 at 6 days is 32.2 µM.
Take `Cc1cccc(CNC(=O)c2cn(CCNC(=O)c3ccccc3Sc3c([N+](=O)[O-])ncn3C)c3cc4c(cc3c2=O)OCO4)n1` [Compound 6, 5-(2-(2-((1-methyl-4-nitro-1H-imidazol-5-yl)thio)benzamido)ethyl)-N-((6-methylpyridin-2-yl)methyl)-8-oxo-5,8-dihydro-[1,3]dioxolo[4,5-g]quinoline-7-carboxamide]: in series [3], the CC50 at 7 days was over 100 µM. In series [5], this compound yielded an EC50 of 30900 nM.
For `CCCC(=O)OCSc1ccccc1C(=O)NCCn1cc(C(=O)NCc2cccc(C)n2)c(=O)c2cc3c(cc21)OCO3` [Compound 4, ((2-((2-(7-(((6-methylpyridin-2-yl)methyl)carbamoyl)-8-oxo-[1,3]dioxolo[4,5-g]quinolin-5(8H)-yl)ethyl)carbamoyl)phenyl)thio)methyl butyrate], the EC50 is 480 nM in series [2] and 1090 nM in series [5]. Besides, the CC50 at 7 days in series [3] is over 100 µM. Besides, the CC50 at 6 days in series [4] was over 100 µM.
Regarding `CCCC(=O)OCSc1ccccc1C(=O)NCCn1ccc(=O)c2cc(F)ccc21` [Compound 1, ((2-((2-(6-fluoro-4-oxoquinolin-1(4H)-yl)ethyl)carbamoyl)phenyl)thio)methyl butyrate], the EC50 in series [2] is 560 nM; in series [5], 2480 nM. Also, in series [3], the CC50 at 7 days is over 100 µM. The CC50 at 6 days in series [4] was determined as 56.2 µM.
As to `CC(=O)Sc1ccccc1C(=O)NCCC(N)=O` [SAMT-247, 3-(S-acetylthiosalicyloyl)aminopropamide or N-[2-ccetylthiobenzoyl]-β-alaninamide], in series [6], the “female macaques protected against vaginal acquisition of SIV” value is reported as 16 out of 20.
As for `Cc1cccc(CNC(=O)c2cn(CCNC(=O)c3ccccc3Sc3c([N+](=O)[O-])ncn3C)c3cc4c(cc3c2=O)OC(F)(F)O4)n1` [Compound 18, 2,2-difluoro-5-(2-(2-((1-methyl-4-nitro-1H-imidazol-5-yl)thio)benzamido)ethyl)-N-((6-methylpyridin-2-yl)methyl)-8-oxo-5,8-dihydro-[1,3]dioxolo[4,5-g]quinoline-7-carboxamide], the AUC0-inf in series [1] (setting [7]) amounted to 42.5 ng·h/mL. Further, in series [1] (metabolite versus 17 after single IV bolus 5 mg/kg of 17, male mice), the “Exposure (AUC0-t) lower than that of 17” value is “approximately 17 fold”. Besides, in series [1] (in vivo), the AUC(0-t) is 34.8 ng·h/mL, the Cmax worked out at 75.6 ng/mL, the MRT inf is 3.73 h and the Tmax was 4.98 min. The half-life in series [1] (in vivo) was 164 min. For the same compound, in series [1], the tlast is 8.00 h and the AUC0-inf was 34.8 ng·h/mL.
Consider `Cn1cnc([N+](=O)[O-])c1Sc1ccccc1C(=O)NCCn1ccc(=O)c2cc3c(cc21)OCO3` [Compound 3, 2-((1-methyl-4-nitro-1H-imidazol-5-yl)thio)-N-(2-(8-oxo-[1,3]dioxolo[4,5-g]quinolin-5(8H)-yl)ethyl)benzamide], for which the CC50 at 7 days in series [3] was over 100 µM. Further, the EC50 in series [5] came out at 17700 nM.

The values are drawn from patent publication US20260216172A1, “COMPOUNDS AND METHOD FOR TREATING HIV INFECTION” (The United States of America, as represented by the …, priority 2023, published 2026).
